System: lung fibroblasts
Test: IGF-1 expression in lung fibroblasts
Type: cell-based
Conditions: not shown
Source text: IGF-1 was implicated as a fibroblast mitogen in BALF from patients with sarcoidosis (Allen et al., Am J Respir Cell Mol Biol 19:250-258 (1998)) and systemic sclerosis (Harrison et al., Clin Sci (Lond) 86:141-148 (1994)). […] In the experiments described herein, IGF-1 mediated cell survival and migration, but not proliferation of normal lung fibroblasts through IGF-1R. The prior studies used either the fetal fibroblast cell line IMR-90 or human fetal embryonic fibroblasts (HFL-1) to examine the proliferative response (Allen et al., Am J Respir Cell Mol Biol 19:250-258 (1998); Harrison et al., Clin Sci (Lond) 86:141-148 (1994)). In contrast, the studies described herein used early passage primary adult lung fibroblasts, which may account for differences in results. In addition, the mitogenic response to IGF in the earlier studies was determined by immunodepletion of IGF from BALF (Allen et al., Am J Respir Cell Mol Biol 19:250-258 (1998); Harrison et al., Clin Sci (Lond) 86:141-148 (1994)). Without wishing to be bound by theory, it is thought that activation of fibroblasts by other growth factors or cytokines such as TGFβ1 in BALF may be necessary for the pro-proliferative effect of IGF (Scarpa et al., Peptides 26:2201-2210 (2005); Danielpour and Song, Cytokine & growth factor reviews 17:59-74 (2006)).

Substance: TGFβ1: growth factor, mediator of fibrosis
- IGF-1 expression in lung fibroblasts: significantly upregulated IGF-1 expression

— patent US8178091B2, “Compositions and methods for the treatment of respiratory disorders” (University of Washington, priority 2007, dated 2012)
